{"source": "patent US8536304B2", "about": "“Tumour-associated peptides that bind to MHC molecules” (Immatics Biotechnologies GmbH, priority 2002, dated 2013)", "assay_type_in_all_cases": "cell-based, human", "key": {"[1]": {"tested_on": "MZ 1257 (renal cell carcinoma)", "test": "51Cr-release CTL-assay against tumor cell line MZ 1257", "settings": "cell line MZ 1257, FIG. 3c / 3f", "procedure": "(§1) In the CTL-assays, tumor cells, peptide-pulsed cells of different cell lines and autologous DC were used as target cells. Peptide-pulsed cells were pulsed with 50 μg/ml peptide (SEQ ID No. 1 or SEQ ID No. 2) for 2 hours. All target cells were labeled with [^51Cr] sodium chromate in RP10 (RPMI 1640, supplemented with 10% heat inactivated calf serum and antibiotics) for 1 hour at 37° C. Subsequently, 10^4 cells/well were transferred to a 96-well round bottomed plate. Varying numbers of CTL were added to give a final volume of 200 μl and incubated for 4 hours at 37° C. At the end of the assays, supernatants (50 μl/well) were harvested and counted in a beta-plate counter. […] The spontaneous and maximal release were determined in the presence of either medium or 2% Triton X-100, respectively.\n(§2) Next, it was tested, in a standard tumor ^51Cr-release-assays again, whether CTL specific for the c-Met-peptide with SEQ ID No. 1 or for adipophilin-peptide with SEQ ID No. 2 recognized and lysed tumor cells, which endogenously express the c-Met-protooncogene or adipophilin. […]"}, "[2]": {"tested_on": "A 498 (renal cell carcinoma)", "test": "51Cr-release CTL-assay against tumor cell line A 498", "procedure": "as §1, §2"}, "[3]": {"tested_on": "T2-cells (HLA-A*02-positive, TAP deficient)", "test": "51Cr-release CTL-assay against peptide-pulsed T2-cells", "settings": "CTL induced with SEQ ID No. 1 (FIG. 2a) or SEQ ID No. 2 (FIG. 2c); targets pulsed 50 μg/ml 2 hours", "procedure": "(§3) For CTL induction, the DC obtained in step 2.1 (5×10^5) were pulsed with the peptides obtained in step 2.2 with SEQ ID No. 1 or SEQ ID No. 2, each with 50 μg/ml for 2 hours, washed and incubated with 2.5×10^6 autologous PBMNC in RP10 medium.\n(§4) After 7 days of culture, cells were restimulated with autologous PBMNC pulsed with peptides. In doing so, 1 ng/ml human recombinant Interleukin IL-2 (R&D Systems) was added on days 1, 3 and 5. The cytolytic activity of thereby induced CTL was analyzed on day 5 after the last restimulation in a standard ^51Cr-release-assay (see below, under 2.4: CTL-assay).\nas §1, with “respectively. […]” for “respectively.”"}, "51Cr-labeled A 498": {"tested_on": "51Cr-labeled A 498", "test": "Lysis-inhibition assay with cold peptide-pulsed T2 inhibitor cells, target A 498", "procedure": "To further verify the antigen-specificity and the MHC-restriction of the in-vitro-induced CTL, inhibition assays with non-^51Cr-labeled (“cold”) inhibitor cell lines were performed.\nIn doing so, the ability of peptide-pulsed cell lines was analyzed to inhibit the lysis of tumor cells (competition assay). For this purpose, an excess of inhibitor (that is an excess of unlabeled pulsed cells) was used. The ratio of inhibitor (peptide-pulsed cells) to target (tumor cells) was 20:1. When inhibitor cell lines were lysed, no ^51Cr was released, since the inhibitor cell lines were unlabeled.\nCell line T2 (HLA-A*02; TAP-deficient; see under 2.5.a) was used as inhibitor. Previous to the assay, this cell line T2 was pulsed with the relevant peptides (SEQ ID NOS:1 or 2) or an irrelevant control peptide (Survivin (=Sv), SEQ ID NO:80), respectively.\nIn FIGS. 4a and 4b, lysis of the ^51Cr-labeled cell lines U 266 and A 498 was tested without inhibitor cell line (see the curve with black filled boxes); lysis with inhibitor cell line T2, pulsed with an irrelevant peptide (Survivin; SEQ ID NO:80; negative control, curves with the filled triangles); and lyses with the inhibitor cell line T2 pulsed with the c-Met-peptide with SEQ ID NO:1 (curves with the empty rhombus).\nWith these inhibition assays, the cells were incubated with 10 μg/ml antibody previous to seeding on the 96-well-plates for 30 min."}, "U 266 (multiple myeloma)": {"tested_on": "U 266 (multiple myeloma)", "test": "51Cr-release CTL-assay against tumor cell line U 266", "settings": "cell line U 266, FIG. 3d / 3e", "procedure": "as §1, §2"}, "MCF-7 (breast cancer)": {"tested_on": "MCF-7 (breast cancer)", "test": "51Cr-release CTL-assay against tumor cell line MCF-7", "settings": "cell line MCF-7, FIG. 3d / 3e", "procedure": "as §1, §2"}, "dendritic cells (DC)": {"tested_on": "dendritic cells (DC)", "test": "51Cr-release CTL-assay against peptide-pulsed DC", "settings": "for lysis of DC pulsed with the peptide: CTL induced with SEQ ID No. 1 (FIG. 2b) or SEQ ID No. 2 (FIG. 2d), targets pulsed 50 μg/ml 2 hours", "procedure": "Peripheral blood mononuclear cells (PBMNC) were isolated by Ficoll/Paque—(Biochrom, Berlin, Germany)—density gradients centrifugation of heparinized blood obtained from buffy coat preparations of healthy volunteers from the blood bank of the University of Tübingen. Cells were seeded (1×10^7 cells/3 ml per well) into 6-well plates (Falcon, Heidelberg, Germany) in RP10 media (RPMI 1640, supplied with 10% heat-inactivated fetal calf serum and with antibiotics). After 2 hours of incubation at 37° C. and 5% CO2, non-adherent cells were removed and the adherent blood monocytes were cultured in RP10 medium supplemented with the following cytokins: human recombinant GM-CSF (granulocyte makrophage colony stimulating factor; Leukomax, Novartis; 100 ng/ml), Interleukin IL-4 (R&D Systems, Wiesbaden, Germany, 1000 IU/ml) and TNF-α (tumor necrosis factor α) (R&D Systems, Wiesbaden, Germany, 10 ng/ml).\nas §3, §4\nIn the CTL-assays, tumor cells, peptide-pulsed cells of different cell lines and autologous DC were used as target cells. Peptide-pulsed cells were pulsed with 50 μg/ml peptide (SEQ ID No. 1 or SEQ ID No. 2) for 2 hours. […] At the end of the assays, supernatants (50 μl/well) were harvested and counted in a beta-plate counter. […] The spontaneous and maximal release were determined in the presence of either medium or 2% Triton X-100, respectively. […]"}}, "data": [{"sequence": "SVASTITGV (listed as Homo sapiens) [SEQ ID No. 2, HLA-A*02 ligand, adipose differentiation-related protein 129-137]", "values": [{"measurement": "lysis of tumor cells by CTL induced with the peptide", "setting": "[1]", "result": "efficiently lyse"}, {"measurement": "lysis of tumor cells by CTL induced with the peptide", "setting": "[2]; cell line A 494, FIG. 3e", "result": "efficiently lyse"}, {"measurement": "lysis of T2-cells pulsed with the peptide", "setting": "[3]", "result": "lysed"}, {"measurement": "inhibition of CTL-induced lysis of tumor cell line by T2 cells pulsed with the peptide", "setting": "51Cr-labeled A 498; adipophilin-peptide-induced CTL, FIG. 4c", "result": "able to inhibit"}, {"measurement": "lysis of tumor cells by CTL induced with the peptide", "setting": "U 266 (multiple myeloma)", "result": "efficiently lyse"}, {"measurement": "lysis of tumor cells by CTL induced with the peptide", "setting": "MCF-7 (breast cancer)", "result": "efficiently lyse"}, {"measurement": "lysis of DC pulsed with the peptide", "setting": "dendritic cells (DC)", "result": "lysed"}, {"measurement": "lysis of autologous DC pulsed with the peptide by CTL induced with the peptide", "setting": "dendritic cells (DC); autologous setting, FIG. 5b", "result": "lysed"}]}, {"sequence": "YVDPVITSI (listed as Homo sapiens) [SEQ ID No. 1, HLA-A*02 ligand, met proto-oncogen 654-662]", "values": [{"measurement": "lysis of tumor cells by CTL induced with the peptide", "setting": "[1]", "result": "efficiently lyse"}, {"measurement": "lysis of tumor cells by CTL induced with the peptide", "setting": "[2]; cell line A 498, FIG. 3b", "result": "efficiently lyse"}, {"measurement": "lysis of T2-cells pulsed with the peptide", "setting": "[3]", "result": "lysed"}, {"measurement": "lysis of 51Cr-labeled tumor cells in presence of unlabeled T2 inhibitor cells pulsed with the peptide", "setting": "51Cr-labeled A 498; c-Met-peptide-induced CTL, inhibitor:target 20:1, FIGS. 4a and 4b", "result": "not lysed"}, {"measurement": "lysis of tumor cells by CTL induced with the peptide", "setting": "U 266 (multiple myeloma)", "result": "efficiently lyse"}, {"measurement": "lysis of tumor cells by CTL induced with the peptide", "setting": "MCF-7 (breast cancer)", "result": "efficiently lyse"}, {"measurement": "lysis of DC pulsed with the peptide", "setting": "dendritic cells (DC)", "result": "lysed"}]}]}
